Assay results reported in patent US20070148660A1, “Treatment of maladaptive substance use with H-ras antagonists” (The Regents of the University of California, priority 2005, published 2007).

Key:
[1] = tested on: GluR1 subunit of the AMPAR; details: 100 mM ethanol, 15 min, hippocampal slices
Method: (§1) Transverse hippocampal slices ([…]) were prepared from 10- to 12-week-old C57BL/6J mice. Slices were allowed to recover for 90 min in artificial cerebrospinal fluid (aCSF) saturated with 95% O2/5% CO2 containing (in mM): 126 NaCl, 1.2 KCl, 1.2 NaH2PO4, 1.2 MgCl2, 2.4 CaCl2, 18 NaHCO3, and 11 glucose. Following recovery, slices were treated with aCSF (control) or ethanol at room temperature, after which the slices were rinsed in cold aCSF, and used either for cross-linking experiments, for Ras activity assay, or for immunoprecipitation. In experiments using Tat-H-Ras DN or the Tat-peptide, the slices were pretreated with either aCSF (control) or 2 μM Tat-H-Ras DN or Tat-peptide for 2 hrs at room temperature, followed by ethanol treatments.
(§2) Cross-linking was performed as described previously (22), with minor modifications. Following treatment, the slices were placed in cold aCSF in the presence or absence of 2 mg/ml of the cross-linking reagent BS^3 for 45 min at 4° C. while shaking. Slices were then rinsed three times with cold aCSF containing 20 mM Tris (pH 7.6), followed by sonication in cold homogenization buffer (10% SDS, 10 mM EDTA, 100 mM Tris (pH 8.0), and protease and phosphatase inhibitor cocktails). The protein concentration was determined using the BCA assay, followed by SDS-PAGE and Western blot analysis. Data are expressed as ratio of normalized surface expressed or internalized receptors to the total receptor levels.
(§3) Proteins were separated by SDS-PAGE and blotted onto a nitrocellulose membrane. After blocking, the membranes were incubated with the specific primary antibody, followed by horseradish peroxidase-conjugated secondary antibody. Detection was obtained followed by enhanced chemiluminescent reaction (Amersham Biosciences), and processed using the STORM PhosphoImager (Amersham Biosciences). Results were quantified by NIH Image 1.61.

[2] = tested on: NR2B subunit; details: 100 mM ethanol, 15 min, hippocampal slices
Method: as §1, §2, §3

[3] = tested on: NR1 subunit of the NMDAR; details: 100 mM ethanol, 15 min, hippocampal slices
Method: as §1, §2, §3

[4] = tested on: NR2B; details: ethanol, hippocampal slices, data not shown
Method: as §1
(§4) Chymotrypsin experiments were performed as described previously (22), with minor modifications. Following recovery, slices were treated with aCSF or 0.5 mg/ml chymotrypsin at 32° C. for 5 min. […] The protein concentration was determined using the BCA assay, followed by SDS-PAGE and Western blot analysis.
(§5) Proteins were separated by SDS-PAGE and blotted onto a nitrocellulose membrane. […] Results were quantified by NIH Image 1.61.

[5] = tested on: NR2A subunits; details: 100 mM ethanol, 15 min, hippocampal slices
Method: as §1, §4, §5

[6] = tested on: Src kinase; details: 100 mM ethanol, 15 min, hippocampal slices
Method: as §1
(§6) The treated slices were homogenized in ice-cold buffer containing 1% deoxycholate, protease and phosphatase inhibitors and (in mM): 250 sucrose, 20 Tris-HCl (pH 7.5), 2 EDTA and 10 EGTA. 500 μg of the protein was diluted with 1× immunoprecipitation buffer (1% Triton X-100 and (in mM): 150 NaCl, 10 Tris HCl (pH 7.4), 1 EDTA, 1 EGTA and 0.2 sodium orthovanadate) and incubated with 5 μg of the appropriate antibody, followed by an overnight incubation at 4° C. with protein G agarose beads. The beads were extensively washed, re-suspended in 2× sample buffer and boiled for 5-10 min. The samples were then subjected to SDS-PAGE followed by Western blotting with the appropriate antibodies.
as §3

[7] = tested on: adaptin β2 with the AMPAR subunit GluR1; details: 100 mM ethanol, 15 min, hippocampal slices
Method: as §1, §6, §3

[8] = tested on: adaptin β2 with TrkB; details: 100 mM ethanol, 15 min, hippocampal slices
Method: as §1, §6, §3

SMILES: CCO [ethanol]
- surface expression of the GluR1 subunit [1]: no change
- membranal localization of the NR2B subunit [2]: did not alter
- surface expression of the NR1 subunit [3]: no change
- surface or intracellular levels of NR2B (chymotrypsin) [4]: no effects
- internalization of the NR2A subunits (chymotrypsin) [5]: significantly increased
- decrease in the levels of active phosphorylated Src [6]: approximately 40%
- interaction between GluR1 and adaptin β2 [7]: no change
- interaction between TrkB and adaptin β2 [8]: no change
